# US20070021439A1, “Methods of reducing risk of infection from pathogens with soluble amide and ester pyrazinoylguanidine sodium channel blockers” (Parion Sciences, Inc., priority 2005, published 2007)
# Counter-ions that a name gives are not always drawn. Like-named read-outs stand apart in the source and are kept apart here.
# Key:
# [1] = Solubility of compounds in sodium chloride solution; type: physicochemical; conditions: saline or isotonic, thermodynamic from solid, ambient temperature
# Method: Compound solubility was measured in water, 0.12 or 0.9% sodium chloride solution at ambient temperature for up to 10 days. Using a UV/Visable Spectrophotometer and applying Beer's Law with the calculated extinction coefficient of amiloride (18.6 mM, absorbance values at 362 nm taken from D. Mazzo 1986) the free base concentration in solution was calculated at specified time points. All samples were stored for the duration of the experiment in a single/closure system consisting of glass vials with a stopper-top closure. The vials were maintained at ambient temperature, in the dark, and in the upright position. Compound stability was measured using reverse phase high performance liquid chromatography on the final filtered pulled sample (day 10).
# Table 2 gives the solubility in saline of selected amide bis methane sulfonic acid salts and compares them to the mono addition methane sulfonic acid salt of PSA 9714.
# [2] = target: T1, ENaC (epithelial sodium channel) (Canis lupus familiaris, UniProt A0A8I3MKE6+A0A8I3Q679+Q95165); experiment: Epithelial sodium channel blocking activity (short circuit current, Ussing chambers) in canine bronchial epithelium; type: cell-based; conditions: for Fold Amiloride (PSA4022 = 100): relative potency, PSA4022 = 100, using IC50 from PSA4022 in same run
# T1 construct: endogenous in cells; host or cells: primary canine bronchial (airway) epithelial cells cultured at air-liquid interface, mounted in Ussing chambers
# T1 sequence (A0A8I3Q679 1-649): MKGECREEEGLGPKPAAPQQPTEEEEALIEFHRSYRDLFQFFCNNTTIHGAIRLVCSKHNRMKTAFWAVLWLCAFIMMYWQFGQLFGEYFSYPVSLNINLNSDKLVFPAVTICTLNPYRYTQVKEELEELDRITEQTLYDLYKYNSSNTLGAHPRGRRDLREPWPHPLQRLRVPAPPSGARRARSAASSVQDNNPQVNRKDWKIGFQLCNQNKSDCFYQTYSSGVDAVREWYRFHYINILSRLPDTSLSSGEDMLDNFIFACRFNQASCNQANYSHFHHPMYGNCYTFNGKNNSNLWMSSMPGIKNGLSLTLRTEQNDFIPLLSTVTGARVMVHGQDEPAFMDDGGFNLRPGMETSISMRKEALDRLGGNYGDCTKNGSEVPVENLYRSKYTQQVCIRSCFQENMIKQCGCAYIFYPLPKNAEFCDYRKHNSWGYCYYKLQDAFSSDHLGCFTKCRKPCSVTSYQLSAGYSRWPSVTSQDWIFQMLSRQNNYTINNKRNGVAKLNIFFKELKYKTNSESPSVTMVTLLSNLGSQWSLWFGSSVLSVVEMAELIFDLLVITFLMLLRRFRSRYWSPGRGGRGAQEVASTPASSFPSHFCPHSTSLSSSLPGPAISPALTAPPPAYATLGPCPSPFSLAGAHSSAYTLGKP
# T1 sequence (Q95165 1-641): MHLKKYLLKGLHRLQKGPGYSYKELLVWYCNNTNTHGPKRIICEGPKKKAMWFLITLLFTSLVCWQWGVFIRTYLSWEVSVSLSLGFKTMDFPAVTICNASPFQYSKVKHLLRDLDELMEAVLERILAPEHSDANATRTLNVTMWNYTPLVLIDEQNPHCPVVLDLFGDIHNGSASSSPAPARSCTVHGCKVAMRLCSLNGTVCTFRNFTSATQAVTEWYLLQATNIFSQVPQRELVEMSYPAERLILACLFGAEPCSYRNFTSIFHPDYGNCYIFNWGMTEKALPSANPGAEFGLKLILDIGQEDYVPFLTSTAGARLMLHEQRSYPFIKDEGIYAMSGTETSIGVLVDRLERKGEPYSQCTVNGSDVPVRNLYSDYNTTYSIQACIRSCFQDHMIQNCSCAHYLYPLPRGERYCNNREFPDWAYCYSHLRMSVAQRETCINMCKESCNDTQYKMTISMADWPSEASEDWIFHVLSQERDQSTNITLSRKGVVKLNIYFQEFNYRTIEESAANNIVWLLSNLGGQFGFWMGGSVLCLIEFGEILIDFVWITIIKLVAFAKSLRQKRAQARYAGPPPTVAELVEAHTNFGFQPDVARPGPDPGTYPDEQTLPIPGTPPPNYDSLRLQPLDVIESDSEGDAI
# T1 sequence (A0A8I3MKE6 1-646): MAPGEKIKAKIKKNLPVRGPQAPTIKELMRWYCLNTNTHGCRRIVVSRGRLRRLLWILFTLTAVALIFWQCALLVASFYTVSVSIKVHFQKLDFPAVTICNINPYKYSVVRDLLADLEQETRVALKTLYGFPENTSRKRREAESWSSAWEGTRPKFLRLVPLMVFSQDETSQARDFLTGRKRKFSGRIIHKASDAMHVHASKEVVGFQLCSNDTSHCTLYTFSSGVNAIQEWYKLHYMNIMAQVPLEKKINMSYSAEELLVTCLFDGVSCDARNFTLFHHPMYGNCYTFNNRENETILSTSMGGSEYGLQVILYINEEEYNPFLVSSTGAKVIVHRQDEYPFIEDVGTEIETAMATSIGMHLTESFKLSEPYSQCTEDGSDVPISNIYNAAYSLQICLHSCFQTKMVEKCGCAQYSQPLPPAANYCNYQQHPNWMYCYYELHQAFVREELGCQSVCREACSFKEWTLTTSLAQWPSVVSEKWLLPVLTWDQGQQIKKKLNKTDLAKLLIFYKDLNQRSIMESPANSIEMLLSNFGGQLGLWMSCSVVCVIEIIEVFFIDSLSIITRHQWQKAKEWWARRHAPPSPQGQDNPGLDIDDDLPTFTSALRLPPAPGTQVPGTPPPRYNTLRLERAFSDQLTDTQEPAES
# Method: One assay used to assess mechanism of action and/or potency of the compounds of Formula I involves the determination of lumenal drug inhibition of airway epithelial sodium currents measured under short circuit current (ISC) using airway epithelial monolayers mounted in Ussing chambers. Cells obtained from freshly excised human, dog or sheep airways are seeded onto porous 0.4 micron Snapwell™ Inserts (CoStar), cultured at air-liquid interface (ALI) conditions in hormonally defined media, and assayed for sodium transport activity (ISC in μA/cm^2) while bathed in Krebs Bicarbonate Ringer (KBR) in Ussing chambers. All test drug additions are to the lumenal bath with half-log dose addition protocols (from 1×10^−11 M to 3×10^−5 M), and the cumulative change in ISC (inhibition) recorded. All drugs are prepared in dimethyl sulfoxide as stock solutions at a concentration of 1×10^−2 M and stored at −20° C. Six preparations are typically run in parallel; one preparation per run incorporates a positive control. All data from the voltage clamps are collected via a computer interface and analyzed off-line.
# Dose-effect relationships for all compounds are considered and analyzed by the Prism 3.0 program. EC50 values, maximal effective concentrations are calculated and compared to positive controls.
# Utilizing the tests set forth above, Table 3 summaries the ENaC blocking ability of some of the amides of this invention when assayed in canine bronchial epithelium.
# [3] = 0.12% sodium chloride solution, 0.12% NaCl solution, read-out: S1 = Solubility in 0.12% NaCl Solution
Structure (SMILES),melting point,IC50 [2],other results
"CS(=O)(=O)O.CS(=O)(=O)O.N=C(NCCCCc1ccc(C(=O)N2CCNCC2)cc1)NC(=O)c1nc(Cl)c(N)nc1N [PSA23607, N-(3,5-Diamino-6-chloropyrazine-2-carbonyl)-N′-{4-[4-(piperazine-1-carbonyl)phenyl]butyl}guanidine bis-methanesulfonate]",122 to 124 °C,12.5 ± 0.5 nM,"solubility ([1]; 0.12% NaCl solution, read-out: S1 = Solubility in 0.12% NaCl Solution): > 5000 µg/mL"
N=C(NCCCCc1ccc(OCC(=O)NCCN)cc1)NC(=O)c1nc(Cl)c(N)nc1N [compound 237778],,5 ± 2 nM,"solubility [1, 3]: > 5000 µg/mL; Fold Amiloride (PSA4022 = 100) [2]: 146"
N=C(NCCCCc1ccc(OCC(N)=O)cc1)NC(=O)c1nc(Cl)c(N)nc1N [compound 9714],,15.2 nM,"solubility [1, 3]: < 100 µg/mL; solubility ([1]; 0.9% sodium chloride solution (normal saline), 0.9% NaCl solution (normal saline), read-out: S2 = Solubility in 0.9% NaCl Solution (normal Saline)): < 100 µg/mL; Fold Amiloride (PSA4022 = 100) [2]: 62"
N=C(NCCCCc1ccc(OCC(=O)OCCN)cc1)NC(=O)c1nc(Cl)c(N)nc1N (as salt: hydrochloride),66 to 68 °C,,
CN(C)CCCNC(=O)COc1ccc(CCCCNC(=N)NC(=O)c2nc(Cl)c(N)nc2N)cc1 (as salt: methanesulfonate),187 to 190 °C,,

# Continued, in another order:
melting point,Structure (SMILES),IC50 [2],other results
60 to 62 °C,N=C(NCCCCc1ccc(OCC(=O)OCCN2CCCCC2)cc1)NC(=O)c1nc(Cl)c(N)nc1N,,
100 to 102 °C,N=C(NCCCCc1ccc(OCC(=O)OCC2CCNCC2)cc1)NC(=O)c1nc(Cl)c(N)nc1N (as salt: hydrochloride),,
